US20250108065A1 (AstraZeneca AB, priority 2022, published 2025)
Where two headings read alike, the source gives them in different places.

Experiments:
[1] = DAPA-HF
[2] = DECLARE subgroup: HbA1c <7%, eGFR ≥60 ml/min/1.73 m^2, no history of HF, UACR ≤300 mg/g; Dapa 10 mg vs placebo
Procedure: CI refers to Confidence interval; D refers to Dapa 10 mg; FAS refers to Full analysis set; HR refers to Hazard ratio; N refers to Number of participants; P refers to Placebo; refers to UACR Urinary albumin-to-creatinine ratio; and N at risk is the number of participants at risk at the beginning of the period.
For the purposes of the analysis, 1 month corresponds to 30 days. […] HR, CI, and p-value are from a Cox proportional hazard model. Blood pressure categories include normal (SBP <120 mmHg and DBP <80 mmHg); elevated (SBP 120-129 mmHg and DBP <80 mmHg); hypertension stage 1 (SBP 130-139 mmHg or DBP 80-89 mmHg); hypertension stage 2 (SBP >140 mmHg or DBP >90 mmHg); hypertensive crisis (SBP >180 mmHg and/or DBP >120 mmHg).

[3] = non-diabetic and prediabetic patients, DAPA-HF and DAPA-CKD, 10 mg once daily
Excerpt: DAPA-HF and DAPA-CKD included patients without diabetes, including those who qualify as prediabetic.

[4] = DAPA-HF (prediabetes); slope at 14-720 days
Excerpt: (§1) “eGFR slope” is the change in […] over time. “eGFR” stands for the estimated glomerular filtration rate.
(§2) (See Inker et al., GFR Slope as a Surrogate End Point for Kidney Disease Progression in Clinical Trials: A Meta-Analysis of Treatment Effects of Randomized Controlled Trials. J Am Soc Nephrol. 2019; 30 (9): 1735-45; Levey et al., GFR decline as an end point for clinical trials in CKD. Am J Kidney Dis. 2014; 64 (6): 821-35.)

[5] = Meta-analysis DAPA-HF/CKD, cited from earlier work
[6] = DAPA-CKD
Excerpt: (§3) The patients without diabetes (or T2D) included those with prediabetes.

[7] = DAPA-HF; remark: listed apart in the source
[8] = DAPA-CKD, HbA1C < 6.5%, cited from earlier work
[9] = Method: The DECLARE study enrolled a broad T2D patient population. By using parameters to select for a relatively healthy population that is close to the prediabetes population, the DECLARE population was split into 4 subgroups. The four subgroups in DECLARE are those with eGFR ≥60 ml/min/1.73 m^2, no history of HF at baseline and: • 1. HbA1c <7%, SBP <140 mmHg, and UACR ≤300 mg/g, or • 2. HbA1c <7%, SBP <140 mmHg, and UACR <30 mg/g, or • 3. T2D <5 years and UACR ≤300 mg/g, or • 4. T2D <5 years and UACR ≤30 mg/g.
as §2

[10] = DAPA-HF, HbA1C < 6.5%, cited from earlier work
[11] = remark: listed apart in the source
Excerpt: as §1, §2, §3

[12] = DAPA-CKD; remark: listed apart in the source
[13] = pre-diabetic 5.7% ≤ HbA1c < 6.5, Dapa vs placebo

## CCOc1ccc(Cc2cc([C@@H]3O[C@H](CO)[C@@H](O)[C@H](O)[C@H]3O)ccc2Cl)cc1 [dapagliflozin]
[1]; patients with diabetes
  HR, primary composite outcome (CV death, hospitalization for HF, or urgent HF visit): 0.75
[1]; patients without diabetes
  HR, primary composite outcome (CV death, hospitalization for HF, or urgent HF visit): 0.73
[2]
  risk of worsening blood pressure (time to worsening in blood pressure category): lowered the risk of worsening blood pressure compared with placebo
[3]
  Events of definite or probable diabetic ketoacidosis (DKA): not observed
  major hypoglycemic AEs: not observed
  safety profile: consistent with the profile established in patients with T2D
[4]
  eGFR chronic slope, Slope diff between Dapa 10 mg and Placebo: 1.35 ml/min/1.73 m^2/yr
[5]; HbA1c < 6.5%, 4003 participants
  Event rate of new onset T2D: Dapa: 2.6 per 100 patient-years of follow-up
[5]; HbA1c < 6.5%, Dapa vs placebo
  HR (95% CI) new onset T2D: 0.67 (0.51, 0.88)
[5]; pre-diabetic 5.7% ≤ HbA1c < 6.5, 2408 participants
  Event rate of new onset T2D: Dapa: 4.2 per 100 patient-years of follow-up
[5]; [13]
  HR (95% CI) new onset T2D: 0.69 (0.52, 0.91)
[6]; patients with diabetes
  HR, primary composite outcome of worsening of kidney function or death: 0.64
[6]; patients without diabetes
  HR, primary composite outcome of worsening of kidney function or death: 0.50
[7]; pre-diabetic 5.7% ≤ HbA1C < 6.5, 1748 participants
  Event rate of new onset T2D: Dapa: 5.3 per 100 patient-years of follow-up
[7]; pre-diabetic 5.7% ≤ HbA1C < 6.5, Dapa vs placebo
  HR (95% CI) new onset T2D: 0.72 (0.52, 0.99)
[8]; 1398 participants
  Event rate of new onset T2D: Dapa: 1.4 per 100 patient-years of follow-up
[8]; Dapa vs placebo
  HR (95% CI) new onset T2D: 0.62 (0.36, 1.07)
[9]; DECLARE (Total Population), 6 months-2 yrs
  eGFR chronic slope, Slope diff between Dapa 10 mg and Placebo: 1.34 ml/min/1.73 m^2/yr
[9]; DECLARE (Total Population), 6 months-3 yrs
  eGFR chronic slope, Slope diff between Dapa 10 mg and Placebo: 1.18 ml/min/1.73 m^2/yr
[9]; DECLARE (Total Population), 6 months-4 yrs
  eGFR chronic slope, Slope diff between Dapa 10 mg and Placebo: 1.01 ml/min/1.73 m^2/yr
[9]; DECLARE subgroup HbA1c <7%, SBP <140 mmHg, UACR <30 mg/g, eGFR ≥60, no HF, 6 months-2 yrs
  eGFR chronic slope, Slope diff between Dapa 10 mg and Placebo: 1.25 ml/min/1.73 m^2/yr
[9]; DECLARE subgroup HbA1c <7%, SBP <140 mmHg, UACR <30 mg/g, eGFR ≥60, no HF, 6 months-3 yrs
  eGFR chronic slope, Slope diff between Dapa 10 mg and Placebo: 1.17 ml/min/1.73 m^2/yr
[9]; DECLARE subgroup HbA1c <7%, SBP <140 mmHg, UACR <30 mg/g, eGFR ≥60, no HF, 6 months-3 yrs, listed as Dapa
  eGFR chronic slope, Slope diff between Dapa 10 mg and Placebo: 1.71 ml/min/1.73 m^2/yr
[9]; DECLARE subgroup HbA1c <7%, SBP <140 mmHg, UACR <30 mg/g, eGFR ≥60, no HF, 6 months-4 yrs
  eGFR chronic slope, Slope diff between Dapa 10 mg and Placebo: 0.98 ml/min/1.73 m^2/yr
[9]; DECLARE subgroup HbA1c <7%, SBP <140 mmHg, UACR ≤300 mg/g, eGFR ≥60, no HF, 6 months-2 yrs
  eGFR chronic slope, Slope diff between Dapa 10 mg and Placebo: 1.56 ml/min/1.73 m^2/yr
[9]; DECLARE subgroup HbA1c <7%, SBP <140 mmHg, UACR ≤300 mg/g, eGFR ≥60, no HF, 6 months-3 yrs
  eGFR chronic slope, Slope diff between Dapa 10 mg and Placebo: 1.85 ml/min/1.73 m^2/yr
[9]; DECLARE subgroup HbA1c <7%, SBP <140 mmHg, UACR ≤300 mg/g, eGFR ≥60, no HF, 6 months-4 yrs
  eGFR chronic slope, Slope diff between Dapa 10 mg and Placebo: 1.08 ml/min/1.73 m^2/yr
[9]; DECLARE subgroup diabetes duration <5 years, UACR ≤30 mg/g, eGFR ≥60, no HF, 6 months-2 yrs
  eGFR chronic slope, Slope diff between Dapa 10 mg and Placebo: 1.03 ml/min/1.73 m^2/yr
[9]; DECLARE subgroup diabetes duration <5 years, UACR ≤30 mg/g, eGFR ≥60, no HF, 6 months-3 yrs
  eGFR chronic slope, Slope diff between Dapa 10 mg and Placebo: 0.96 ml/min/1.73 m^2/yr
[9]; DECLARE subgroup diabetes duration <5 years, UACR ≤30 mg/g, eGFR ≥60, no HF, 6 months-4 yrs
  eGFR chronic slope, Slope diff between Dapa 10 mg and Placebo: 0.86 ml/min/1.73 m^2/yr
[9]; DECLARE subgroup diabetes duration <5 years, UACR ≤300 mg/g, eGFR ≥60, no HF, 6 months-2 yrs
  eGFR chronic slope, Slope diff between Dapa 10 mg and Placebo: 0.88 ml/min/1.73 m^2/yr
[9]; DECLARE subgroup diabetes duration <5 years, UACR ≤300 mg/g, eGFR ≥60, no HF, 6 months-3 yrs
  eGFR chronic slope, Slope diff between Dapa 10 mg and Placebo: 0.92 ml/min/1.73 m^2/yr
[9]; DECLARE subgroup diabetes duration <5 years, UACR ≤300 mg/g, eGFR ≥60, no HF, 6 months-4 yrs
  eGFR chronic slope, Slope diff between Dapa 10 mg and Placebo: 0.86 ml/min/1.73 m^2/yr
[9]; DECLARE, T2D patients with eGFR 60 to 90 and ≥90 ml/min/1.73 m^2
  renal benefits following dapagliflozin treatment: reduced eGFR decline and albuminuria
[10]; 2605 participants
  Event rate of new onset T2D: Dapa: 5.0 per 100 patient-years of follow-up
[10]; Dapa vs placebo
  HR (95% CI) new onset T2D: 0.68 (0.50, 0.94)
[11]; DAPA-CKD (prediabetes), slope at 14 days-30 months
  eGFR chronic slope, Slope diff between Dapa 10 mg and Placebo: 1.44 ml/min/1.73 m^2/yr
[11]; DAPA-CKD, T2D patients, from baseline to end of treatment
  placebo-corrected difference in eGFR slope: 1.18 ml/min/1.73 m^2/yr
[11]; DAPA-CKD, T2D patients, from two weeks to end of treatment
  placebo-corrected difference in eGFR slope: 2.26 ml/min/1.73 m^2/yr
[11]; DAPA-CKD, patients without T2D, from baseline to end of treatment
  placebo-corrected difference in eGFR slope: 0.46 ml/min/1.73 m^2/yr
[11]; DAPA-CKD, patients without T2D, from two weeks to end of treatment
  placebo corrected difference in eGFR slope: 1.29 ml/min/1.73 m^2/yr
[12]; pre-diabetic 5.7% ≤ HbA1c < 6.5, 660 participants
  Event rate of new onset T2D: Dapa: 2.7 per 100 patient-years of follow-up
[12]; [13]
  HR (95% CI) new onset T2D: 0.59 (0.33, 1.04)
